Measured values taken from patent US20240082203A1, “PHARMACEUTICAL COMPOSITION FOR INHALATION” (SHANGHAI HUILUN BIOLOGICAL TECHNOLOGY CO., LTD., priority 2020, published 2024).

Legend:
[1] = lyophilized preparation of Document 5 (anhydrous sodium carbonate, sodium chloride) kept at 60° C. for two weeks, per Document 4; cited from earlier work
physchem = type: physicochemical; details: water
Procedure: The solubility of sivelestat sodium in water is less than 0.4 mg/mL, which cannot meet the administration requirements as an injection or inhalation preparation. Besides, sivelestat sodium is prone to hydrolysis in aqueous solution, generating the impurity with the following structure (hereinafter referred to as “impurity A”).

solubility (physchem): < 400 µg/mL
SMILES: CC(C)(C)C(=O)Oc1ccc(S(=O)(=O)Nc2ccccc2C(=O)NCC(=O)O)cc1 [sivelestat sodium, N-[2-[[[4-(2,2-dimethyl-1-oxopropoxy)phenyl]sulfonyl]amino]benzoyl]-(S)-glycine]
residual rate of sivelestat sodium [1]: 91.4%
